Assay results taken from ChEMBL document CHEMBL1147713, “Inhibition of trypsin and urokinase by Cbz-amino(4-guanidinophenyl)methanephosphonate aromatic ester derivatives: the influence of the ester group on their biological activity” (Bioorg Med Chem Lett, 2006).

What was measured:
[1] = target: Urokinase-type plasminogen activator (Homo sapiens, UniProt P00749); test: Inhibition of human uPA by chromogenic assay using Cbz-Val-Gly-Arg-pNA as chromogenic substrate
[2] = Selectivity for trypsin over uPA by chromogenic assay
[3] = Inhibition of bovine trypsin by chromogenic assay using Bzl-L-Arg-pNA as chromogenic substrate; design: species or system Bos taurus

Structure (SMILES)	IC50 [1]	Ratio IC50 [2]	IC50 ([3]; read-out: IC50)	IC50 [3]
CC(C)c1ccc(OP(=O)(Oc2ccc(C(C)C)cc2)C(NC(=O)OCc2ccccc2)c2ccc(NC(=N)N)cc2)cc1 (centres undefined)	208 nM	0.29	61 nM	–
CS(=O)(=O)c1ccc(OP(=O)(Oc2ccc(S(C)(=O)=O)cc2)C(NC(=O)OCc2ccccc2)c2ccc(NC(=N)N)cc2)cc1 (centres undefined)	53 nM	434	23000 nM	–
N=C(N)Nc1ccc(C(NC(=O)OCc2ccccc2)P(=O)(Oc2ccc3ccccc3c2)Oc2ccc3ccccc3c2)cc1.O=C(O)C(F)(F)F (centres undefined)	455 nM	–	–	Not Active
CC(C)(C)CC(C)(C)c1ccc(OP(=O)(Oc2ccc(C(C)(C)CC(C)(C)C)cc2)C(NC(=O)OCc2ccccc2)c2ccc(NC(=N)N)cc2)cc1 (centres undefined)	204 nM	11.3	2310 nM	–
CCc1ccc(OP(=O)(Oc2ccc(CC)cc2)C(NC(=O)OCc2ccccc2)c2ccc(NC(=N)N)cc2)cc1 (centres undefined)	7800 nM	0.002	17 nM	–
N=C(N)Nc1ccc(C(NC(=O)OCc2ccccc2)P(=O)(Oc2ccccc2)Oc2ccccc2)cc1 (centres undefined)	532 nM	0.21	112 nM	–
Cc1ccc(OP(=O)(Oc2ccc(C)cc2)C(NC(=O)OCc2ccccc2)c2ccc(NC(=N)N)cc2)cc1 (centres undefined)	370 nM	0.48	176 nM	–
COc1ccc(OP(=O)(Oc2ccc(OC)cc2)C(NC(=O)OCc2ccccc2)c2ccc(NC(=N)N)cc2)cc1 (centres undefined)	2600 nM	0.1	251 nM	–
CSc1ccc(OP(=O)(Oc2ccc(SC)cc2)C(NC(=O)OCc2ccccc2)c2ccc(NC(=N)N)cc2)cc1 (centres undefined)	26 nM	0.33	8.7 nM	–
CC(C)(C)c1ccc(OP(=O)(Oc2ccc(C(C)(C)C)cc2)C(NC(=O)OCc2ccccc2)c2ccc(NC(=N)N)cc2)cc1 (centres undefined)	98 nM	0.9	88 nM	–
